Experimental data taken from US11905274B2, “Receptor inhibitors, pharmaceutical compositions comprising the same and use thereof” (BEIJING TIDE PHARMACEUTICAL CO., LTD., priority 2018, dated 2024).
Where two headings read alike, the source gives them in different places.

Legend:
AT2 Receptor (AT2R) = AT2 Receptor (AT2R) (Homo sapiens (Human), UniProt P50052); assay: Inhibitory activity on AT2 receptor (Tag-lite HTRF, Tb-labeled AT2R cells, angiotensin receptor red agonist); type: binding; details: 1 h at room temperature
Chain of AT2 Receptor (AT2R) (P50052 whole entry): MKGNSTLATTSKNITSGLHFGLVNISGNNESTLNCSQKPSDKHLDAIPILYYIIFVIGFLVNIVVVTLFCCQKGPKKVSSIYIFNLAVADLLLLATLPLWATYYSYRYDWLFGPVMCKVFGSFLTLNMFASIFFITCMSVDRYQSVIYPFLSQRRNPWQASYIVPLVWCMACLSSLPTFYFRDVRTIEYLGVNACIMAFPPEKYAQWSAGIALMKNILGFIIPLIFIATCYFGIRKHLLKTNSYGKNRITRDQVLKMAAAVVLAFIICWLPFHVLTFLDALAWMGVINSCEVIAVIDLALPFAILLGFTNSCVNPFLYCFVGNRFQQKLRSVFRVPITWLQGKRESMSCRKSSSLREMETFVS

AT1 Receptor (AT1R) = AT1 Receptor (AT1R) (Homo sapiens (Human), UniProt P30556); assay: Inhibitory activity on AT1 receptor (Tag-lite HTRF, Tb-labeled AT1R cells, angiotensin receptor red agonist); type: binding; details: 1 h at room temperature
Chain of AT1 Receptor (AT1R) (P30556 whole entry): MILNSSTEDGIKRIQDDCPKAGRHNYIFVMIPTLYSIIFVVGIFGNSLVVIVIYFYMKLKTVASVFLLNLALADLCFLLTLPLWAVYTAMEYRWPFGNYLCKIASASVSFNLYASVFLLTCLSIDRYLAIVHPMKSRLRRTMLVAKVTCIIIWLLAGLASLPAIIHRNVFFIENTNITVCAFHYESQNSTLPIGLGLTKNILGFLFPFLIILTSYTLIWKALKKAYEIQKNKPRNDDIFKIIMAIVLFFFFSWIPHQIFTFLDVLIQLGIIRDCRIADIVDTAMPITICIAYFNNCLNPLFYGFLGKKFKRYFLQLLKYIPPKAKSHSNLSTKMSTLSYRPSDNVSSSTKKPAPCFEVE

[1] = Pharmacokinetic (PK) test in mice; type: in vivo; details: male ICR mice, plasma; for AUC(0-inf): read-out: AUCINF_obs; for Cmax: read-out: C0/Cmax
Method: To male ICR mice, the solution of Compound C2 (1 mg/mL) of the present invention and the solution of control Compound A (1 mg/mL) were administered intravenously (IV) and intragastrically (PO), in both of which the vehicle system is DMSO, solutol and deionized water (1:2:17, v:v:v). For Compound C2 and Compound A, the IV and PO dosages were 3 mg/kg and 20 mg/kg, respectively. For IV administration, blood was collected from the ophthalmic venous plexus of the mice at (0) horn before the administration and at 0.083, 0.25, 0.5, 1, 2, 4, 6, 8, and 24 horns after the administration, while for PO administration, blood was collected from ophthalmic venous plexus of the mice at (0) hour before the administration and at 0.25, 0.5, 1, 2, 4, 6, 8, and 24 horns after the administration. For Compound C2, a 0.05 mL blood sample was taken at each time point, while for Compound A, a 0.03 mL blood sample was taken at each time point. The collected blood sample was placed in a clean sample tube containing EDTA-K2 (4%), and centrifuged at 5000 rpm at 4° C. for 5 minutes. The resulting plasma was transferred to another clean sample tube, and stored at −20° C. LC-MS/MS analysis was performed on the plasma samples. The pharmacokinetic parameters were calculated using WinNonlin 6.3 software.

Row | SMILES | IC50 (AT2 Receptor (AT2R)) | IC50 (AT1 Receptor (AT1R)) | also measured
1 | O=C(O)[C@@H]1CN(C(=O)N(c2ccccc2)c2ccccc2)CCN1C(=O)N1c2ccccc2C=Cc2ccccc21 [Compound C2, (S)-1-(5H-dibenzo[b,f]azepine-5-carbonyl)-4-(diphenylcarbamoyl) piperazine-2-carboxylic acid] | 20.3 nM | > 10 µM | CL_obs ([1]; IV, 3 mg/kg): 1.010 mL/min/kg; bioavailability ([1]; mouse, PO 20 mg/kg vs IV 3 mg/kg): 45.7%; AUC(0-t) ([1]; mouse, IV, 3 mg/kg): 49000 ng·h/mL; MRT last ([1]; mouse, IV, 3 mg/kg): 1.9 h; half-life ([1]; mouse, IV, 3 mg/kg): 271 min; AUC(0-inf) ([1]; mouse, IV, 3 mg/kg): 49.5 µg·h/mL; Cmax ([1]; mouse, IV, 3 mg/kg): 43.4 µg/mL; AUC(0-t) ([1]; mouse, PO, 20 mg/kg): 151000 ng·h/mL; MRT last ([1]; mouse, PO, 20 mg/kg): 2.34 h; half-life ([1]; mouse, PO, 20 mg/kg): 183 min; AUC(0-inf) ([1]; mouse, PO, 20 mg/kg): 151 µg·h/mL; Cmax ([1]; mouse, PO, 20 mg/kg): 62 µg/mL
2 | O=C(O)[C@@H]1CN(C(=O)C(c2ccccc2)c2ccccc2)CCN1C(=O)N1c2ccccc2C=Cc2ccccc21 [Compound C4, (S)-1-(5H-dibenzo [b,f]azepine-5-carbonyl)-4-(2,2-diphenylacetyl) piperazine-2-carboxylic acid] | 45.1 nM | > 10 µM | –
3 | O=C(O)[C@@H]1CN(C(=O)N2c3ccccc3C=Cc3ccccc32)CCN1C(=O)C(c1ccccc1)c1ccccc1 [Compound C5, (S)-4-(5H-dibenzo [b,f]azepine-5-carbonyl)-1-(2,2-diphenylacetyl) piperazine-2-carboxylic acid] | 6.47 nM | > 10 µM | –
4 | O=C(O)[C@H]1CN(C(=O)N2c3ccccc3C=Cc3ccccc32)CCN1C(=O)N(c1ccccc1)c1ccccc1 [Compound C45, (R)-4-(5H-dibenzo[b,f]azepine-5-carbonyl)-1-(diphenylcarbamoyl) piperazine-2-carboxylic acid] | 55.5 nM | > 10 µM | –
5 | O=C(O)[C@@H]1CN(C(=O)N(c2ccccc2)c2ccccc2)CCN1C(=O)N1c2ccccc2Sc2ccccc21 [Compound C20, (S)-4-(diphenylcarbamoyl)-1-(10H-phenothiazine-10-carbonyl)piperazine-2-carboxylic acid] | 36.7 nM | > 10 µM | –
6 | O=C1Cc2ccccc2N(C(=O)N2CCN(C(=O)N(c3ccccc3)c3ccccc3)C[C@H]2C(=O)O)c2ccccc21 [Compound C77, (S)-4-(diphenylcarbamoyl)-1-(10-oxo-10,11-dihydro-5H-dibenzo[b,f]azepine-5-carbonyl)piperazine-2-carboxylic acid] | 32.3 nM | > 10 µM | –
7 | O=C(O)[C@@H]1CN(C(=O)N2c3ccccc3C=Cc3ccccc32)CCN1C(=O)N(c1ccccc1)c1ccccc1 [Compound C1, (S)-4-(5H-dibenzo[b,f]azepine-5-carbonyl)-1-(diphenylcarbamoyl) piperazine-2-carboxylic acid] | 18.8 nM | > 10 µM | –
